Experimental data reported in PubChem BioAssay (NCI).
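Five compound concentrations were applied to cells in 96-well plates for 48 hours; endpoints were derived by simple linear interpolation of the resulting dose-response curve. Here, GI50 denotes the concentration required for 50% inhibition of growth. TGI: total growth inhibition.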

Tests used:
Assay in all cases: DTP human tumour cell line panel, 48 h
MCF7 breast = test system: MCF7 breast
SF-295 CNS = test system: SF-295 CNS
TK-10 renal = test system: TK-10 renal
SR leukemia = test system: SR leukemia
HOP-62 NSCLC = test system: HOP-62 NSCLC
HL-60(TB) leukemia = test system: HL-60(TB) leukemia
NCI-H226 lung = test system: NCI-H226 lung
DU-145 prostate = test system: DU-145 prostate
NCI-H460 lung = test system: NCI-H460 lung
A498 renal = test system: A498 renal
LOX IMVI melanoma = test system: LOX IMVI melanoma
OVCAR-3 ovarian = test system: OVCAR-3 ovarian
RPMI-8226 leukemia = test system: RPMI-8226 leukemia
SK-OV-3 ovarian = test system: SK-OV-3 ovarian
COLO 205 colon = test system: COLO 205 colon
A549 NSCLC = test system: A549 NSCLC
SNB-19 CNS = test system: SNB-19 CNS
CAKI-1 renal = test system: CAKI-1 renal
ACHN renal = test system: ACHN renal
PC-3 prostate = test system: PC-3 prostate
M14 melanoma = test system: M14 melanoma
OVCAR-8 ovarian = test system: OVCAR-8 ovarian
HOP-92 NSCLC = test system: HOP-92 NSCLC
SNB-75 CNS = test system: SNB-75 CNS
MALME-3M melanoma = test system: MALME-3M melanoma
RXF 393 renal = test system: RXF 393 renal
HS 578T breast = test system: HS 578T breast
HT29 colon = test system: HT29 colon
BT-549 breast = test system: BT-549 breast
KM12 colon = test system: KM12 colon
MDA-MB-435 = test system: MDA-MB-435
SF-539 CNS = test system: SF-539 CNS
HCC-2998 colon = test system: HCC-2998 colon
CCRF-CEM leukemia = test system: CCRF-CEM leukemia
T-47D breast = test system: T-47D breast
MOLT-4 leukemia = test system: MOLT-4 leukemia
SK-MEL-28 melanoma = test system: SK-MEL-28 melanoma
786-0 renal = test system: 786-0 renal
SN12C renal = test system: SN12C renal
U251 CNS = test system: U251 CNS
NCI-H522 lung = test system: NCI-H522 lung
UACC-257 melanoma = test system: UACC-257 melanoma
NCI/ADR-RES ovarian = test system: NCI/ADR-RES ovarian
SF-268 CNS = test system: SF-268 CNS
SW-620 colon = test system: SW-620 colon
SK-MEL-5 melanoma = test system: SK-MEL-5 melanoma
SK-MEL-2 melanoma = test system: SK-MEL-2 melanoma
UO-31 renal = test system: UO-31 renal
HCT-15 colon = test system: HCT-15 colon
NCI-H23 lung = test system: NCI-H23 lung
OVCAR-5 ovarian = test system: OVCAR-5 ovarian
HCT-116 colon = test system: HCT-116 colon
EKVX NSCLC = test system: EKVX NSCLC
IGROV1 ovarian = test system: IGROV1 ovarian
MDA-MB-231 breast = test system: MDA-MB-231 breast
OVCAR-4 ovarian = test system: OVCAR-4 ovarian
UACC-62 melanoma = test system: UACC-62 melanoma

With `N#CSc1c[nH]c2ccc(/C=C/C(=O)/C=C(O)/C=C/c3ccc4[nH]cc(SC#N)c4c3)cc12` the GI50 (MCF7 breast) was 0.871 µM, the TGI (MCF7 breast) was 4.15 µM and the GI50 (SF-295 CNS) was 3.03 µM. For the same molecule, the TGI (SF-295 CNS) was 13.3 µM, the GI50 (TK-10 renal) was 3.35 µM and the TGI (TK-10 renal) was 23.8 µM. It also gave a GI50 (SR leukemia) of 0.505 µM, a TGI (SR leukemia) of 6.14 µM and a GI50 (HOP-62 NSCLC) of 3.82 µM. It also gave a TGI (HOP-62 NSCLC) of 19.8 µM, a GI50 (HL-60(TB) leukemia) of 0.902 µM and a TGI (HL-60(TB) leukemia) of 4.34 µM. The GI50 (NCI-H226 lung) was 1.95 µM, the TGI (NCI-H226 lung) was 5.86 µM and the GI50 (DU-145 prostate) was 1.92 µM. For the same molecule, the TGI (DU-145 prostate) was 4.56 µM, the GI50 (NCI-H460 lung) was 3.01 µM and the TGI (NCI-H460 lung) was 11.2 µM. It also gave a GI50 (A498 renal) of 7.61 µM, a TGI (A498 renal) of 55.4 µM and a GI50 (LOX IMVI melanoma) of 0.483 µM. It also gave a TGI (LOX IMVI melanoma) of 1.83 µM, a GI50 (OVCAR-3 ovarian) of 0.515 µM and a TGI (OVCAR-3 ovarian) of 4.06 µM. For the same molecule, the GI50 (RPMI-8226 leukemia) was 1.56 µM, the TGI (RPMI-8226 leukemia) was 5.98 µM and the GI50 (SK-OV-3 ovarian) was 20.3 µM. The TGI (SK-OV-3 ovarian) was 80.2 µM, the GI50 (COLO 205 colon) was 1.55 µM and the TGI (COLO 205 colon) was 3.7 µM. For the same molecule, the GI50 (A549 NSCLC) was 3.25 µM, the TGI (A549 NSCLC) was 14.7 µM and the GI50 (SNB-19 CNS) was 3.25 µM. The TGI (SNB-19 CNS) was 15.5 µM, the GI50 (CAKI-1 renal) was 1.58 µM and the TGI (CAKI-1 renal) was 4.1 µM. It also gave a GI50 (ACHN renal) of 0.568 µM, a TGI (ACHN renal) of 3.3 µM and a GI50 (PC-3 prostate) of 0.343 µM. The TGI (PC-3 prostate) was 2.03 µM, the GI50 (M14 melanoma) was 0.864 µM and the TGI (M14 melanoma) was 3.58 µM. For the same molecule, the GI50 (OVCAR-8 ovarian) was 2.46 µM, the TGI (OVCAR-8 ovarian) was over 100 µM and the GI50 (HOP-92 NSCLC) was 1.63 µM. It also gave a TGI (HOP-92 NSCLC) of 4.46 µM, a GI50 (SNB-75 CNS) of 3.1 µM and a TGI (SNB-75 CNS) of 21.4 µM. It also gave a GI50 (MALME-3M melanoma) of 2.22 µM, a TGI (MALME-3M melanoma) of 5.91 µM and a GI50 (RXF 393 renal) of 0.538 µM. The TGI (RXF 393 renal) was 2.93 µM, the GI50 (HS 578T breast) was 2.98 µM and the TGI (HS 578T breast) was 35.2 µM. For the same molecule, the GI50 (HT29 colon) was 1.42 µM, the TGI (HT29 colon) was 3.84 µM and the GI50 (BT-549 breast) was 1.52 µM. It also gave a TGI (BT-549 breast) of 8.04 µM, a GI50 (KM12 colon) of 1.66 µM and a TGI (KM12 colon) of 5.47 µM. For the same molecule, the GI50 (MDA-MB-435) was 2.06 µM, the TGI (MDA-MB-435) was 7.03 µM and the GI50 (SF-539 CNS) was 2.87 µM. For the same molecule, the TGI (SF-539 CNS) was 10.6 µM, the GI50 (HCC-2998 colon) was 3.82 µM and the TGI (HCC-2998 colon) was 16.6 µM. It also gave a GI50 (CCRF-CEM leukemia) of 0.612 µM, a TGI (CCRF-CEM leukemia) of 8.08 µM and a GI50 (T-47D breast) of 1.97 µM. For the same molecule, the TGI (T-47D breast) was 8.82 µM, the GI50 (MOLT-4 leukemia) was 1.61 µM and the TGI (MOLT-4 leukemia) was 5.44 µM. For the same molecule, the GI50 (SK-MEL-28 melanoma) was 2 µM, the TGI (SK-MEL-28 melanoma) was 5.76 µM and the GI50 (786-0 renal) was 0.956 µM. The TGI (786-0 renal) was 9.53 µM, the GI50 (SN12C renal) was 1.92 µM and the TGI (SN12C renal) was 10.9 µM. The GI50 (U251 CNS) was 1.17 µM, the TGI (U251 CNS) was 9.09 µM and the GI50 (NCI-H522 lung) was 0.886 µM. The TGI (NCI-H522 lung) was 2.79 µM, the GI50 (UACC-257 melanoma) was 2.79 µM and the TGI (UACC-257 melanoma) was 12.5 µM. The GI50 (NCI/ADR-RES ovarian) was 3.22 µM, the TGI (NCI/ADR-RES ovarian) was 52.7 µM and the GI50 (SF-268 CNS) was 2.65 µM. For the same molecule, the TGI (SF-268 CNS) was 13.1 µM, the GI50 (SW-620 colon) was 0.668 µM and the TGI (SW-620 colon) was 2.35 µM. It also gave a GI50 (SK-MEL-5 melanoma) of 1.52 µM, a TGI (SK-MEL-5 melanoma) of 3.48 µM and a GI50 (SK-MEL-2 melanoma) of 3.23 µM. The TGI (SK-MEL-2 melanoma) was 12.3 µM, the GI50 (UO-31 renal) was 0.344 µM and the TGI (UO-31 renal) was 1.66 µM. It also gave a GI50 (HCT-15 colon) of 0.416 µM, a TGI (HCT-15 colon) of 2.11 µM and a GI50 (NCI-H23 lung) of 2.95 µM. The TGI (NCI-H23 lung) was 13.6 µM, the GI50 (OVCAR-5 ovarian) was 3.6 µM and the TGI (OVCAR-5 ovarian) was 14.8 µM. It also gave a GI50 (HCT-116 colon) of 0.296 µM, a TGI (HCT-116 colon) of 1.19 µM and a GI50 (EKVX NSCLC) of 1.97 µM. The TGI (EKVX NSCLC) was 10.7 µM, the GI50 (IGROV1 ovarian) was 1.19 µM and the TGI (IGROV1 ovarian) was 8.41 µM. For the same molecule, the GI50 (MDA-MB-231 breast) was 1.72 µM, the TGI (MDA-MB-231 breast) was 3.61 µM and the GI50 (OVCAR-4 ovarian) was 1.42 µM. It also gave a TGI (OVCAR-4 ovarian) of 18.6 µM, a GI50 (UACC-62 melanoma) of 2.11 µM and a TGI (UACC-62 melanoma) of 7.11 µM.
